In ChEMBL document CHEMBL1201862, “PubChem BioAssay data set” (2004):
Activity calls are given as the source filed them.

Experiments:
cells [1] = assay type: functional, cell-based
cells [2] = assay type: functional, cell-based; remark: listed apart in the source
[3] = biological target: Luciferin 4-monooxygenase (Photinus pyralis, UniProt P08659); assay: firefly luciferase enzyme inhibitors, dose response, biochemical, luminescence (AID 1891)
[4] = Luminescence Cell-Based Dose Confirmation HTS to Identify Inhibitors of Platelet Dense Granule Release. [Related pubchem assays: 1663 (Primary HTS), 1678 (Summary of Project)]; assay type: functional
[5] = intracellular Trypanosoma cruzi inhibitors in host cells – cell-based, plate reader, cherry-pick samples, set 3, dose response (AID 651818); assay type: functional;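 note: compounds incubated with infected cells for about four days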
Prothrombin = Prothrombin (Homo sapiens, UniProt P00734); assay: Thrombin 1536 HTS Dose Response Confirmation. [Related pubchem assays: 1046 (Thrombin 1536 HTS; hits were confirmed in this assay)]; assay type: functional
BJ [6] = assay: cells; assay type: functional, cell-based; conditions: Homo sapiens
BJ [7] = assay: cytotoxicity toward BJ-TERT-LT-ST fibroblasts, dose response, cell-based, RAS-independent, luminescence (AID 1935); assay type: functional; conditions: Homo sapiens;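 note: BJ fibroblasts immortalized with TERT plus LT and ST oncogenes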
BJ [8] = assay: cytotoxicity toward BJ-TERT fibroblasts, dose response, cell-based, RAS-independent, luminescence (AID 1933); assay type: functional; conditions: Homo sapiens
[9] = cytotoxicity toward DRD oncogenic fibroblasts, dose response, cell-based, non-viral oncogenic, luminescence (AID 1934); assay type: functional; conditions: Homo sapiens
Leucine aminopeptidase = biological target: T1, Leucine aminopeptidase (Plasmodium falciparum 3D7, UniProt Q8IL11); assay: P. falciparum M17LAP inhibitors, primary screen, biochemical, fluorogenic H-Leu-NHMec substrate, 1536-well (AID 1619); assay type: functional
T1 sequence (Q8IL11 whole entry): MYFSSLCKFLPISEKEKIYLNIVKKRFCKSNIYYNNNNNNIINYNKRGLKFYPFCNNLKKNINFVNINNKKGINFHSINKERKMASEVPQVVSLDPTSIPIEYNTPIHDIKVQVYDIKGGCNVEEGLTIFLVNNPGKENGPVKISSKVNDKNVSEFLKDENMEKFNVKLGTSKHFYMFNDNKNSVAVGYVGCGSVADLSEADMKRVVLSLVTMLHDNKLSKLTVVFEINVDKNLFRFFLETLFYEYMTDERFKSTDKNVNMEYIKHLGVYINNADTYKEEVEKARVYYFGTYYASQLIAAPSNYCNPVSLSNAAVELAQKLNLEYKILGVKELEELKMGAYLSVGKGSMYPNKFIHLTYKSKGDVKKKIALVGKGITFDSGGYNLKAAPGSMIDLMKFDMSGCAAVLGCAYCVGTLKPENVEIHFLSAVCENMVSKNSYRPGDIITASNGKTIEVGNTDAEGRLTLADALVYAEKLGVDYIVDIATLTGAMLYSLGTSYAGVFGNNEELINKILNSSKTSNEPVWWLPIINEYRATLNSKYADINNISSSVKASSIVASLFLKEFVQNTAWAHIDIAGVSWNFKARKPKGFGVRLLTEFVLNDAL

Paired box protein Pax-8 = Paired box protein Pax-8 (Homo sapiens, UniProt Q06710); assay: inhibitors of PAX8-driven TPO luciferase reporter, dose response, RMG-I cells, cherry-pick (AID 687027); assay type: functional, cell-based;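 note: luciferase reporter driven by Pax8 target thyroperoxidase promoter measured by SteadyGlo luminescence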
[10] = HEp-2 cell cytotoxicity, dose response, cytotoxicity control for RSV inhibitor project, HTS (AID 2410); assay type: functional; conditions: human respiratory syncytial virus
[11] = NIH-3T3 fibroblast cytotoxicity, dose response, cytotoxicity control, cell-based, fluorescence, Alamar Blue, secondary assay (AID 2327); assay type: functional;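 note: NIH-3T3 mouse fibroblasts cultured with fluconazole at 8 µg/mL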
[12] = C. albicans growth with fluconazole, confirmation, fluorescence, retest (AID 2467); assay type: functional, cell-based
Cytochrome P450 2C9 = Cytochrome P450 2C9 (Homo sapiens, UniProt P11712)
Cytochrome P450 3A4 = Cytochrome P450 3A4 (Homo sapiens, UniProt P08684);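 note: CYP3A4 tested as one member of a cytochrome P450 panel screen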
Cytochrome P450 1A2 = biological target: T2, Cytochrome P450 1A2 (Homo sapiens, UniProt P05177);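 note: PubChem cytochrome P450 panel assay, CYP1A2 panel member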
T2 sequence (P05177 whole entry): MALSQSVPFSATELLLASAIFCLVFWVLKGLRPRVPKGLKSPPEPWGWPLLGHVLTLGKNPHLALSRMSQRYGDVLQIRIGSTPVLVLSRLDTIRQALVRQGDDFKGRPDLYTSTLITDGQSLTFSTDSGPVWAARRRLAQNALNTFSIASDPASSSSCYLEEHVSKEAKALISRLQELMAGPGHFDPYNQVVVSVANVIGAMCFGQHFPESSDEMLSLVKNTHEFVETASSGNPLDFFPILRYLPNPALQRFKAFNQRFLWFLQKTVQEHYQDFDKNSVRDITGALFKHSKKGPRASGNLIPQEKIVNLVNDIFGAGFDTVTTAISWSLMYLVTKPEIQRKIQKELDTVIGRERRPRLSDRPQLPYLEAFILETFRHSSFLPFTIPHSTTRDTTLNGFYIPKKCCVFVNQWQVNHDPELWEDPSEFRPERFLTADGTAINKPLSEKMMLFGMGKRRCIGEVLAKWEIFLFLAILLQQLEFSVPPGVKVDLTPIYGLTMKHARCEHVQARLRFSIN

Cytochrome P450 2C19 = Cytochrome P450 2C19 (Homo sapiens, UniProt P33261); assay: Cytochrome panel assay with activity outcomes. Panel member name: p450-cyp2c19 Compounds with AC50 equal or less than 10 uM are considered active; assay type: functional; conditions: read-out: AC50
Cytochrome P450 2D6 = Cytochrome P450 2D6 (Homo sapiens, UniProt P10635);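 note: CYP2D6 member of a cytochrome P450 panel assay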
Chain of Cytochrome P450 2D6 (P10635 whole entry): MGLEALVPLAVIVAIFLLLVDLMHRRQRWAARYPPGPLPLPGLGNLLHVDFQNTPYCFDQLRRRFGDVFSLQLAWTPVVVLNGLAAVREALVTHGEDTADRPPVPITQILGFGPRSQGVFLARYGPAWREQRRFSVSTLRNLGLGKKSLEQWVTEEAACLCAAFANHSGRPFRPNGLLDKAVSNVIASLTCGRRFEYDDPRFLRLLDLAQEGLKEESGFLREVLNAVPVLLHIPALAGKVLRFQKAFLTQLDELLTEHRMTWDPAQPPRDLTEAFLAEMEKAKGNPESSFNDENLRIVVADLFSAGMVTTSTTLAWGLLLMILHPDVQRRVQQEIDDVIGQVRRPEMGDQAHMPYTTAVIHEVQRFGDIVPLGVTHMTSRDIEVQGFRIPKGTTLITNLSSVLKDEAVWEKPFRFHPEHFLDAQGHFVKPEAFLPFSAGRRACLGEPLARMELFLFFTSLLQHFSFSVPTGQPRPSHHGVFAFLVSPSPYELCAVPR

Chain of Cytochrome P450 2C9 (P11712 whole entry): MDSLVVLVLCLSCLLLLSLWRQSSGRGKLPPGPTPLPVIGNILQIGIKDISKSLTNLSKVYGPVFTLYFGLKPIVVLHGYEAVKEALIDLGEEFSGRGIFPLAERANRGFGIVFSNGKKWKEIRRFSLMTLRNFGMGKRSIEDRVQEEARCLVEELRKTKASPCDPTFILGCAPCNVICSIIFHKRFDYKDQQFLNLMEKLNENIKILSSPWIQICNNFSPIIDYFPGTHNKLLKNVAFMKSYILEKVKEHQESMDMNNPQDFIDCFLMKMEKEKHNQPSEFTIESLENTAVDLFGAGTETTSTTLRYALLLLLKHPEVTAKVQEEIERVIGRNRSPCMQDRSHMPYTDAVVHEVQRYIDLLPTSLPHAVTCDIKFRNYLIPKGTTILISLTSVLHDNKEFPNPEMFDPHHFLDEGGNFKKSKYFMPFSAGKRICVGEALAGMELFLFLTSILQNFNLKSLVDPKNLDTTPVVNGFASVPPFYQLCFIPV
Chain of Luciferin 4-monooxygenase (P08659 whole entry): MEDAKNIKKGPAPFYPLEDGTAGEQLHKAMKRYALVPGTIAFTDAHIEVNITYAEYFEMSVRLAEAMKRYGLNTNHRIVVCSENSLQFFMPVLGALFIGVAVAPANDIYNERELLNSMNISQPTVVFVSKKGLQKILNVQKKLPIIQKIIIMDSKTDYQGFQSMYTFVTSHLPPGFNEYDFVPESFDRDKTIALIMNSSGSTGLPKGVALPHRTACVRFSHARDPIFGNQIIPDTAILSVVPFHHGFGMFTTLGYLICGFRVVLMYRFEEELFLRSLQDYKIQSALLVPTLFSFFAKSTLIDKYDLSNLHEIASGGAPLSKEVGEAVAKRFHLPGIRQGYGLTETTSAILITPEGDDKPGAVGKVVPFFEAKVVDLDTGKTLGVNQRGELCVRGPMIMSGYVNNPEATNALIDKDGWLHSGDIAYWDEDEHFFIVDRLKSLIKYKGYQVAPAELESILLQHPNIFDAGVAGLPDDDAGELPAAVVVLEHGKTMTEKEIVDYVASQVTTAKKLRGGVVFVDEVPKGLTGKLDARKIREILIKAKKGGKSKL
Chain of Cytochrome P450 3A4 (P08684 whole entry): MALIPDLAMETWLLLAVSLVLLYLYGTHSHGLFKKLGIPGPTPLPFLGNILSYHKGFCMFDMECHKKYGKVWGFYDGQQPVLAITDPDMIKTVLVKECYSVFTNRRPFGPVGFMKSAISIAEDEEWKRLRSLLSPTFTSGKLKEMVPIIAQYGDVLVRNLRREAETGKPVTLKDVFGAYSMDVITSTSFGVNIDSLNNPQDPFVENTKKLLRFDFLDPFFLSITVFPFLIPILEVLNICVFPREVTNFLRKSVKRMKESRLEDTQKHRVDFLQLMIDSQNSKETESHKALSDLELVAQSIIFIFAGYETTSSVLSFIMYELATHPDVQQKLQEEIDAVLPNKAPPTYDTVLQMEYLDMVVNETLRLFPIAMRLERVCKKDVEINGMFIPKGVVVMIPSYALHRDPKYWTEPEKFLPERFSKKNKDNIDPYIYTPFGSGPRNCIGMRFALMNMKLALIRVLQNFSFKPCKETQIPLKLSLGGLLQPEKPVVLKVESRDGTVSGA
Chain of Cytochrome P450 2C19 (P33261 whole entry): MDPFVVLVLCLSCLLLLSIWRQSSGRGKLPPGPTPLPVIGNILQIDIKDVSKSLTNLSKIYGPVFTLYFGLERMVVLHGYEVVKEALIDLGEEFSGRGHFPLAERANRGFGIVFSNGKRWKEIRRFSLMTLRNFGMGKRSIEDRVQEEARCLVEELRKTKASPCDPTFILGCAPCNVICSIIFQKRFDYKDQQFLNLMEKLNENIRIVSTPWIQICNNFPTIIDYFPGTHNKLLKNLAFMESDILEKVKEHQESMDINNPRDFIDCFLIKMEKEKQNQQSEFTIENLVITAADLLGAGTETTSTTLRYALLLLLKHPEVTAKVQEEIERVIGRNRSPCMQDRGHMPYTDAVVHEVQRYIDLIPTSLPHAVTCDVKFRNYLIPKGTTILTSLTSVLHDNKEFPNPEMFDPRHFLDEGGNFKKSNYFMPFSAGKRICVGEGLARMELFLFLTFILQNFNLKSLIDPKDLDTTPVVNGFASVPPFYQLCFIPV
Chain of Paired box protein Pax-8 (Q06710 whole entry): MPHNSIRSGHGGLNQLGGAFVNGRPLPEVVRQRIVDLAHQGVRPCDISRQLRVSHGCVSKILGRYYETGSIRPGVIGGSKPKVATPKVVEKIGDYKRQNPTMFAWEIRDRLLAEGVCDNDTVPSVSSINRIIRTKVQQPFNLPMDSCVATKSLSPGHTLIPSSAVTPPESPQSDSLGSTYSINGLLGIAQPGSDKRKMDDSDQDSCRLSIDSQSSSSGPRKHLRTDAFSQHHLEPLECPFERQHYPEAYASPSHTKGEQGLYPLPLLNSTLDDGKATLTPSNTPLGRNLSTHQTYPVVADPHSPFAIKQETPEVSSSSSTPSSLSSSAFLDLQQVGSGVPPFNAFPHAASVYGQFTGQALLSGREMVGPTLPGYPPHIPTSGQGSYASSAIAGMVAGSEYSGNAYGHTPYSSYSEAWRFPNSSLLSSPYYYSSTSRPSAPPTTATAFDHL

## Cc1ccc(S(=O)(=O)N2CC(C)N(C(=O)N3CCOCC3)C2C)cc1 (stereo unspecified)
Cells [1]
  EC50: > 350 µM (not active)
Cells [2]
  EC50: > 350 µM (not active)

## C[C@@H](CO)NC(=O)c1ccc2c3n(nc2c1)-c1ccccc1CO3
[3]
  EC50: 16.4 µM (active)
[4]
  EC50: 6.93 µM (active)

## C[C@H]1CN([C@@H](C)CO)C(=O)c2cccc(NC(=O)c3cnccn3)c2O[C@@H]1CN(C)Cc1ccc(C(=O)Nc2ccccc2N)cc1
[5]
  AC50: 2.99 µM (active)

## CC(C)c1nnc(NC(=O)c2cnccn2)s1
Prothrombin
  IC50: > 50 µM (not active)

## O=C(CCN1C(=O)/C(=C/c2cccc(Br)c2)SC1=S)Nc1cccnc1
BJ [6]
  EC50: > 150 µM (not active)
BJ [7]
  EC50: > 150 µM (not active)
BJ [8]
  EC50: 7.86 µM (inconclusive)
[9]
  EC50: 18.7 µM (active)

## CCN(CC)S(=O)(=O)c1cccc(NC(=O)/C=C/c2cccc([N+](=O)[O-])c2)c1
Prothrombin
  IC50: > 50 µM (not active)

## CCOC(=O)C1CCN(/C=N/c2cc(C)on2)CC1
[3]
  EC50: > 112 µM (not active)
[4]
  EC50: > 112 µM (not active)

## COc1ccc(NC(=O)CSc2[nH]c(=O)cc(C)c2C#N)cc1OC
Leucine aminopeptidase
  IC50: 16.2 µM (active)

## C[C@@H]1CN([C@H](C)CO)C(=O)Cc2cc(NC(=O)Nc3ccc(F)cc3)ccc2O[C@H]1CN(C)Cc1ccc(Cl)c(Cl)c1
[5]
  AC50: 4.44 µM (active)
Paired box protein Pax-8
  AC50: 16.2 µM (active)

## CCn1cc(C(=O)NCC(OC)OC)c(=O)c2cc(S(=O)(=O)N3CCC(C)CC3)ccc21
[10]
  CC50: 11.1 µM (active)
Cells [1]
  EC50: > 350 µM (not active)
Cells [2]
  EC50: > 350 µM (not active)

## Cc1cc(S(=O)(=O)N2CCCCC2)ccc1OCC(=O)Nc1ccccc1
[3]
  EC50: > 112 µM (not active)
[4]
  EC50: 19.7 µM (active)

## C[C@H]1CN([C@@H](C)CO)C(=O)c2cccc(NS(=O)(=O)c3ccc(F)cc3)c2O[C@H]1CN(C)Cc1ccc(C(=O)Nc2ccccc2N)cc1
[5]
  AC50: 3.43 µM (active)

## CCCOc1ccc(CNC(=O)c2ccc3c(c2)N(CC)CCS3)cc1
[3]
  EC50: > 112 µM (not active)
[4]
  EC50: > 112 µM (not active)

## CCn1c(O)nnc1Sc1nc(C)nc2scc(-c3cccs3)c12
[11]
  EC50: > 160 µM (inactive)
[12]
  EC50: 0.163 µM (active)

## CC[C@@H]1C=CC=CC[C@H](C)[C@@H](O)[C@@H](C)C(=O)[C@H](C)[C@@H](O)[C@H](C)C(=O)[C@H](C)[C@@H](O)[C@H](C)C=CC(=O)O[C@H]2[C@@H](C)[C@@H](CC1)O[C@@]1(CC[C@@H](C)[C@@H](C[C@H](C)O)O1)[C@@H]2C [OLIGOMYCIN C]
[11]
  EC50: 15.6 µM (active)
[12]
  EC50: 0.427 µM (active)

## Nc1nnnn1/N=C/c1cccc(Oc2ccccc2)c1
[11]
  EC50: > 150 µM (inactive)
[12]
  EC50: > 38 µM (not active)

## CC1COC(=O)C(NNc2ccc(Cl)c(Cl)c2)=N1 (stereo unspecified)
[11]
  EC50: > 160 µM (inactive)
[12]
  EC50: 2.17 µM (active)

## C[C@@H]1CN([C@@H](C)CO)C(=O)Cc2cc(NC(=O)Nc3ccc4c(c3)OCO4)ccc2O[C@@H]1CN(C)Cc1ccc(-c2ccccc2)cc1
[5]
  AC50: 4.26 µM (active)

## Cc1ccc(NC(=O)CN2C(=O)N/C(=C/c3ccco3)C2=O)cc1
Leucine aminopeptidase
  IC50: 37.8 µM (active)

## CCOC(=O)CSc1n[nH]c(NC(=O)c2cccc(C)c2)n1
Cytochrome P450 2C9
  AC50: 25.1 µM (inconclusive)
Cytochrome P450 3A4
  AC50: 5.62 µM (inconclusive)
Prothrombin
  IC50: 0.586 µM (active)

## O=C(c1ccc(Cl)cc1)C1CCCN(Cc2ccc(Oc3ncccn3)cc2)C1 (stereo unspecified)
[3]
  EC50: > 112 µM (not active)
[4]
  EC50: > 112 µM (not active)

## COc1ccc(CC(=O)n2nc(-c3ccccc3)nc2NCc2ccco2)cc1
Prothrombin
  IC50: 8.75 µM (active)

## C[C@H](CO)N1C[C@H](C)[C@@H](CN(C)Cc2ccc(C(=O)Nc3ccccc3N)cc2)Oc2c(NC(=O)c3ccc(-c4nccs4)cc3)cccc2C1=O
[5]
  AC50: 2.85 µM (active)

## COc1ccc(S(=O)(=O)N(C)CC(=O)Nc2ccc3c(c2)OCO3)cc1OC
[3]
  EC50: > 112 µM (not active)
[4]
  EC50: > 112 µM (not active)

## Cc1ccc(C)c(OCC(=O)O/N=C(\N)c2cccc([N+](=O)[O-])c2)c1
Cells [1]
  EC50: > 350 µM (not active)
Cells [2]
  EC50: > 350 µM (not active)

## Nc1n[nH]c(N)c1N=Nc1cccc(F)c1
Leucine aminopeptidase
  IC50: 5.51 µM (active)

## C[C@H]1CN([C@@H](C)CO)C(=O)c2cccc(NC(=O)C3CCCCC3)c2O[C@@H]1CN(C)Cc1ccc(Oc2ccccc2)cc1
[5]
  AC50: 4.77 µM (active)

## C[C@H]1CN([C@@H](C)CO)C(=O)Cc2cc(NC(=O)Nc3ccc(C(F)(F)F)cc3)ccc2O[C@@H]1CN(C)Cc1ccc(-c2ccccc2)cc1
[5]
  AC50: 3.1 µM (active)

## CSc1nc(-c2ccccc2)nn1C(=O)c1ccccc1
Cytochrome P450 2C9
  AC50: 10 µM (inconclusive)
Cytochrome P450 1A2
  AC50: 2.51 µM (inconclusive)
Cytochrome P450 2C19
  AC50: 0.1 µM (inconclusive)
Prothrombin
  IC50: 0.896 µM (active)

## O=C(O)C1CCCCC1C(=O)Nc1ccc(Cl)cc1Cl (stereo unspecified)
Leucine aminopeptidase
  IC50: 14.3 µM (active)

## Cc1ccc(C(=O)CSc2ccc(-c3ccncc3)nn2)cc1
Cells [1]
  EC50: > 350 µM (not active)
Cells [2]
  EC50: > 350 µM (not active)

## Cc1nn(-c2ccccc2)c(Cl)c1/C=N/NC(=O)c1[nH]ncc1Br
[3]
  EC50: 0.374 µM (active)
[4]
  EC50: 3.52 µM (active)

## C#CCNc1cc(C)nc2ncnn12
Prothrombin
  IC50: > 50 µM (not active)

## CC(C)=CCSc1nnc([C@@H](N)Cc2c[nH]c3ccccc23)o1
Cells [1]
  EC50: > 350 µM (not active)
Cells [2]
  EC50: > 350 µM (not active)

## O=C(NNC(=S)NC(=O)c1ccccc1[N+](=O)[O-])c1ccc(Cl)cc1Cl
[11]
  EC50: > 150 µM (inconclusive)
[12]
  EC50: 4.09 µM (active)

## Cc1ccnc(NS(=O)(=O)c2cc([N+](=O)[O-])ccc2C)c1
Cells [1]
  EC50: > 350 µM (not active)
Cells [2]
  EC50: > 350 µM (not active)

## Cc1ccc(C(=O)n2ncn(C)c2=S)cc1
Prothrombin
  IC50: 1.02 µM (active)

## CC(C)c1ccc(N(CC(=O)N/N=C/c2ccc(OC3CSC3)cc2)S(=O)(=O)c2ccccc2)cc1
Prothrombin
  IC50: > 50 µM (not active)

## Cc1cccc(NC(=O)CN2NS(=O)(=O)c3ccccc3C2=O)c1
Leucine aminopeptidase
  IC50: 7.74 µM (active)

## O=C(CN1C(=O)c2ccccc2S1(=O)=O)Nc1ccccc1
Cytochrome P450 2D6
  AC50: 17.8 µM (inconclusive)
Cytochrome P450 2C9
  AC50: 12.6 µM (inconclusive)
Leucine aminopeptidase
  IC50: 24.6 µM (active)

## COc1ccc(CNc2nc(-c3cccnc3)nn2C(=O)C(C)C)cc1
Prothrombin
  IC50: 0.167 µM (active)
